Target: T1, PYL4 and HAB1 (Arabidopsis thaliana, UniProt O80920)
T1 construct: vector pHB3; made in house
T1 sequence (O80920 1-207): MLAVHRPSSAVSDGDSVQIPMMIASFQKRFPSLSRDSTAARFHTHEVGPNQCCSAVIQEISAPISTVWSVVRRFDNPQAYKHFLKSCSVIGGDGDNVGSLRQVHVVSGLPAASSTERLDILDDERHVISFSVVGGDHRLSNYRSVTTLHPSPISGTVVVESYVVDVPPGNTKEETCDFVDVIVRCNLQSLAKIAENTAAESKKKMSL
T1 sequence (Q9CAJ0 23-511 partner): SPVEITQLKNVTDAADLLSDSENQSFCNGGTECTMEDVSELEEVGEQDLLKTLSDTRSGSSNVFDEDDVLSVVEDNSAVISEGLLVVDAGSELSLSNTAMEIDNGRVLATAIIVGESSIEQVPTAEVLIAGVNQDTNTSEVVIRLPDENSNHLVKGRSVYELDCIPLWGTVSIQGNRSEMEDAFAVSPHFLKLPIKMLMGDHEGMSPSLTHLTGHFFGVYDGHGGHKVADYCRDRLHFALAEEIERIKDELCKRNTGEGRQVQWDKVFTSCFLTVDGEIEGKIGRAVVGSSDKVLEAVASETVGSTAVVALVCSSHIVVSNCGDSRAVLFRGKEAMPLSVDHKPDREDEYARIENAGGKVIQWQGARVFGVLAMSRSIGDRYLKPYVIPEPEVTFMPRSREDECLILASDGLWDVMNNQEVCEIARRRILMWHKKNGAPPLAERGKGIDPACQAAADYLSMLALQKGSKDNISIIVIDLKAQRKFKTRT
Assay: In vitro pull down assay of refolded PYL4 with HAB1
Assay type: binding
Protocol: To explore the functional implications of the PYR1-PP2C interaction, we examined if an ABA response could be reconstituted in vitro. Recombinant GST-HAB1, GST-ABI1 and GST-ABI2 were expressed in E. coli and tested for ligand-dependent interactions with 6×His-PYR1 in pull-down assays. Purified 6×His-PYR1 and GST-HAB1 (20 and 100 μg respectively, 8 μM PYR1 final concentration), were combined in 100 μl TBS containing 10 μM (+)-ABA or 1% DMSO for negative control. The reaction was incubated for 90 minutes at RT and 5 μl of PrepEase (USB) His-tagged protein purification resin was added. The resin and reaction mixture was incubated 30 min at RT with gentle shaking at 5 min intervals. The resin was washed five times with TBS containing 10 μM (+)-ABA. After the final wash, the bound protein was eluted in 20 μl SDS-PAGE buffer, boiled for 5 minutes and centrifuged. 5 μl of eluate was analyzed on SDS-PAGE. For pull-downs with ABI1 and ABI2, crude lysates were used in a similar method, except purified PP2C was replaced with cleared E. coli lysates. The amount of lysate added was determined by SDS-page analysis to yield ˜100 μg PP2C, such that the same stoichiometry was used as in assays using purified proteins.
A PYL4 6×His-tagged (SEQ ID NO:141) protein was constructed using a public pUni clone. This was recombined into the His-tagged expression vector pHB3. […]

For `CC1=CC(=O)CC(C)(C)[C@@]1(O)/C=C/C(C)=C\C(=O)O` [ABA, Abscisic acid], the “PYL4 binding to HAB1 in pull down” value was “binds HAB1 in response to ABA”.
